# System: Utrophin A promoter linked to a luciferase reporter gene in mdx mouse H2K cells
# Experiment: Luciferase reporter assay (murine H2K cells)
# Type: cell-based
# Conditions: luciferase level, H2K/mdx/Utro A reporter cells, final concentration of 10 μM, 48 hrs
# Method: The cell line used for the screen is an immortalized mdx mouse H2K cell line that has been stably transfected with a plasmid containing fragment of the Utrophin A promoter including the first untranslated exon linked to a luciferase reporter gene (see FIG. 1).
# Under conditions of low temperature and interferon containing media, the cells remain as myoblasts. These are plated into 96 well plates and cultured in the presence of compound for three days. The level of luciferase is then determined by cell lysis and reading of the light output from the expressed luciferase gene utilising a plate luminometer.
# The H2K/mdx/Utro A reporter cell line was passaged twice a week until ≦30% confluent. The cells were grown at 33° C. in the presence of 10% CO2.
# To remove the myoblasts for platting, they were incubated with Trypsin/EDTA until the monolayer started to detach.
# • DMEM Gibco 41966 • 20% FCS • 1% Pen/Strep • 1% glutamine • 10 mls Chick embryo extract • Interferon (1276 905 Roche) Add fresh 10 μl/50 mls medium
# The H2K/mdx/Utro A reporter cell line cells were plated out into 96 well plates (Falcon 353296, white opaque) at a density of approximately 5000 cells/well in 190 μl normal growth medium. The plates were then incubated at 33° C. in the presence of 10% CO2 for 24 hrs.
# Compounds were dosed by adding 10 μl of diluted compound to each well giving a final concentration of 10 μM. The plates were then incubated for a further 48 hrs.
# Cells were then lysed in situ following the manufacture's protocols (Promega Steady-Glo Luciferase Assay System (E2520), then counted for 10 seconds using a plate luminometer (Victor1420).
# Compounds for screening were stored at −20° C. as 10 mM stocks in 100% DMSO until required.
row,SMILES,Activity
1,"CCS(=O)(=O)c1ccc2cn(-c3ccc(Cl)cc3)nc2c1 [Example 3, 2-(4-chlorophenyl)-6-(ethylsulfonyl)-2H-indazole]",++ (Between 201% and 300% relative to control)
2,"CC(C)C(=O)Nc1ccc2cn(-c3ccc4ccccc4c3)nc2c1 [Example 2, N-(2-(naphthalen-2-yl)-2H-indazol-6-yl)isobutyramide]",++++ (Above 401% relative to control)
3,"CCS(=O)(=O)c1ccc2nn(-c3ccc4ccccc4c3)nc2c1 [Example 4, 5-(ethylsulfonyl)-2-(naphthalen-2′-yl)-2H-benzo[d][1,2,3]triazole]",++ (Between 201% and 300% relative to control)
4,"CC(C)C(=O)Nc1ccc2cnn(-c3ccc4ccccc4c3)c2c1 [Example 1, N-(1-(naphthalen-2-yl)-1H-indazol-6-yl)isobutyramide]",+ (Up to 200% relative to control)

# — patent publication US20120149741A1, “TREATMENT OF DUCHENNE MUSCULAR DYSTROPHY” (Biomarin IGA Limited, priority 2007, published 2012)
